Tests used:
[1] = Moisture sorption/desorption by dynamic vapor sorption (DVS), with post-DVS PXRD; type: physicochemical
Source text: This example provides characterization data on PF-07265028 Form 1 from a sample obtained using a procedure disclosed in International Patent Publication No. WO2021/220185, using powder x-ray diffraction and dynamic vapor sorption to support the preparation of a disclosure. Form 1 is a crystalline hygroscopic tetrahydrate with multiple powder patterns depending on temperature and humidity. […] The dehydration risk can pose challenges to API isolation, storage and drug product manufacture. Maintaining the proper water content is considered to be difficult for Form 1.

[2] = Thermal analysis: dehydration by TGA; type: physicochemical

Row | Hygroscopicity (in words) [1] | Moisture Sorption/Desorption-Hydrate (DVS): Change in mass-ref (%) ([1]; 75% RH) | Moisture Sorption/Desorption-Hydrate (DVS): Change in mass-ref (%) ([1]; 90% RH) | Crystallinity after dehydration ([1]; after dehydration, PXRD after the water sorption experiment) | Post-DVS PXRD result ([1]; after water sorption experiment) | Moisture Sorption/Desorption-Hydrate (DVS): dehydration state ([1]; at 3% RH) | Moisture Sorption/Desorption-Hydrate (DVS): rehydrate at or below 10% RH ([1]; at or below 10% RH) | Rehydration at high humidity conditions ([1]; high humidity conditions, after dehydration) | Dehydration (TGA)-Hydrated/Solvated, weight loss [2] [% weight loss] | Post-DVS PXRD compared with in-going material ([1]; after DVS experiment) | Hygroscopicity: Moisture Sorption (DVS)-Anhydrous ([1]; at 60% RH) [% at 60% RH] | Hygroscopicity: Moisture Sorption (DVS)-Anhydrous ([1]; at 75% RH) [% at 75% RH] | Hygroscopicity: Moisture Sorption (DVS)-Anhydrous ([1]; at 90% RH) [% at 90% RH] | Structure (SMILES) | Moisture Sorption/Desorption-Hydrate (DVS): Change in mass-ref (%) ([1]; at 60% RH)
1 | hygroscopic | ~−2.4 | ~−0.1 | can lose crystallinity | peak shifting and disorder observed | Completely dehydrated | did not | does not rehydrate | ~14 | – | – | – | – | CC[C@@H](N)c1nc(N2CCC[C@H]2C)cc2c1CN(c1cccc(-c3nnc4n3[C@@H](C)CC4)n1)C2=O [Form 1, 4-[(1R)-1-aminopropyl]-2-{6-[(5S)-5-methyl-6,7-dihydro-5H-pyrrolo[2,1-c][1,2,4]triazol-3-yl]pyridin-2-yl}-6-[(2R)-2-methylpyrrolidin-1-yl]-2,3-dihydro-1H-pyrrolo[3,4-c]pyridin-1-one] | Change in mass-ref (%) at 60% RH: ~−6.2%;
2 | non-hygroscopic | – | – | – | – | – | – | – | – | Post-DVS PXRD is consistent with in- | ~0.2 | ~0.2 | ~0.2 | CC[C@@H](N)c1nc(N2CCC[C@H]2C)cc2c1CN(c1cccc(-c3nnc4n3[C@@H](C)CC4)n1)C2=O [Form 2, 4-[(1R)-1-aminopropyl]-2-{6-[(5S)-5-methyl-6,7-dihydro-5H-pyrrolo[2,1-c][1,2,4]triazol-3-yl]pyridin-2-yl}-6-[(2R)-2-methylpyrrolidin-1-yl]-2,3-dihydro-1H-pyrrolo[3,4-c]pyridin-1-one] | –

— patent publication US20240409559A1, “CRYSTALLINE FORM OF AZALACTAM COMPOUND” (PFIZER INC., priority 2021, published 2024)
